The values below come from ChEMBL document CHEMBL1201862, “PubChem BioAssay data set” (2004).

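Assay format: 96-well plates, 48-hour exposure. GI50 = concentration required for 50% inhibition of growth.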 Activity calls are given as the source filed them. Rule as the data show it: active = GI50 up to about 1.1 µM and inactive = higher. Bounds are passed on as bounds.

Test systems include HCT-15; A498; SK-MEL-28; IGROV-1; Malme-3M; SK-MEL-2; NCI-H226; 786-0; HCC 2998; RPMI-8226; COLO 205; HT-29; A549; SNB-19; SF-539; MDA-MB-231; SF-295; SF-268; UACC-257; MOLT-4.
Holding throughout (assay): NCI-60 cell line screen, 48 h

Take `CCOC(=O)CCc1cc(=O)oc2cc(O)cc(O)c12`: the GI50 in the assay with HCT-15 is more than 100 µM; in the assay on A498 it was 50.1 µM (inactive); with SK-MEL-28, > 100 µM (inactive); with IGROV-1, > 100 µM (inactive); in the assay on Malme-3M, > 100 µM (inactive); in the assay on SK-MEL-2 it was > 100 µM (inactive). The GI50 is > 100 µM (inactive) in the assay with NCI-H226; > 100 µM (inactive) in the assay with 786-0; 52.7 µM (inactive) with HCC 2998; > 100 µM (inactive) in the assay on RPMI-8226; > 100 µM (inactive) in the assay with COLO 205; > 100 µM (inactive) in the assay on HT-29. Moreover, the GI50 in the assay on A549, in the assay with SNB-19, with SF-539, in the assay on MDA-MB-231, in the assay on SF-295 and in the assay with SF-268 was > 100 µM (inactive) throughout. In addition, the GI50 in the assay with UACC-257 and in the assay with MOLT-4 was > 100 µM (inactive) each time.
`Cn1c(=S)[nH]c(N)c(Cc2ccccc2)c1=O`: the GI50 was 42.9 µM in the assay with HCT-15; 32.1 µM (inactive) in the assay on A498; > 100 µM (inactive) in the assay on SK-MEL-28; 21.2 µM (inactive) with IGROV-1; 78 µM (inactive) with Malme-3M; > 100 µM (inactive) in the assay on SK-MEL-2. The GI50 in the assay with NCI-H226 was 44.3 µM (inactive); in the assay on 786-0, > 100 µM (inactive); in the assay on HCC 2998, > 100 µM (inactive); with RPMI-8226 it was > 100 µM (inactive); in the assay on COLO 205, > 100 µM (inactive); with HT-29, 77.8 µM (inactive). The GI50 with A549, in the assay on SNB-19, in the assay on SF-539, in the assay with MDA-MB-231, with SF-295 and in the assay on SF-268 was > 100 µM (inactive) in each case. The GI50 was > 100 µM (inactive) with UACC-257 and 41.8 µM (inactive) in the assay on MOLT-4.
In the case of `N#Cc1cccc(N2C(=O)C3C4C=CC(C3C2=O)C2C(=O)N(c3cccc(C#N)c3)C(=O)C42)c1` (stereo not given), the GI50 in the assay on HCT-15 is more than 63.1 µM; in the assay with A498, 22.4 µM (inactive); in the assay on SK-MEL-28, > 63.1 µM (inactive); in the assay on IGROV-1, 29.7 µM (inactive); in the assay with Malme-3M it was 53.6 µM (inactive); with SK-MEL-2, 22.8 µM (inactive). The GI50 was 62.1 µM (inactive) in the assay with NCI-H226; 33.1 µM (inactive) in the assay on 786-0; > 56.2 µM (inactive) with HCC 2998; > 56.2 µM (inactive) in the assay on RPMI-8226; > 63.1 µM (inactive) in the assay on COLO 205; > 63.1 µM (inactive) in the assay on HT-29. For the same molecule, the GI50 in the assay on A549 is 51.2 µM (inactive); with SNB-19 it was 31.2 µM (inactive); in the assay on SF-539 it was 29.3 µM (inactive); in the assay with MDA-MB-231, > 51.5 µM (inactive); with SF-295, 17.1 µM (inactive); with SF-268, 19.8 µM (inactive). Also, the figures for the GI50 in the assay on UACC-257 and in the assay with MOLT-4 were > 63.1 µM (inactive) and 41.8 µM (inactive), respectively.
For `CCOC(=O)C(Cc1ccc(N(CCCl)CCCl)cc1)NC(=O)CCCN1C(=O)CN=C(c2ccccc2)c2cc(Cl)ccc21` (stereo not given), the GI50 in the assay on HCT-15 is 20.6 µM; in the assay on A498, 39.9 µM (inactive); in the assay on SK-MEL-28 it was 3.03 µM (inactive); with IGROV-1 it was 4.37 µM (inactive); in the assay on Malme-3M, 2.35 µM (inactive); in the assay with SK-MEL-2 it was 14.7 µM (inactive). The GI50 in the assay with NCI-H226 is 35.2 µM (inactive); with 786-0, 10.2 µM (inactive); with HCC 2998, 12.4 µM (inactive); in the assay on RPMI-8226 it was 3.48 µM (inactive); in the assay with COLO 205, 16.2 µM (inactive); with HT-29, 15.3 µM (inactive). Besides, the GI50 in the assay with A549 was 39.1 µM (inactive); in the assay with SNB-19, > 100 µM (inactive); with SF-539, 6.37 µM (inactive); in the assay on MDA-MB-231, 22.1 µM (inactive); in the assay with SF-295, 51.4 µM (inactive); with SF-268, 4.01 µM (inactive). Also, the GI50 in the assay on UACC-257 is 3.6 µM (inactive); in the assay with MOLT-4, 2.44 µM (inactive).
